In patent publication US11932599B2, “Ferroptosis inducing compound, compositions comprising the same, and methods of inducing ferroptosis” (UNIVERSITY OF MASSACHUSETTS, priority 2021, dated 2024):

Experiments:
[1] = tested on: MCF10A non-malignant breast epithelial cell; experiment: Cell viability assay, cytotoxicity in MCF10A cells; assay type: cell-based; conditions: 48 hours
Experimental: (§1) Cell lines and media. In the following example, HT-1080 (Human fibrosarcoma harboring NrasQ61K) cells (obtained from ATCC) were grown in DMEM high-glucose media with 1% non-essential amino acids (Life Technologies) and 10% FBS. 143B cells were grown in DMEM high-glucose media with 1% glutamine and 10% FBS. Calu-1 cells were grown in McCoy's 5A media (Life Technologies) supplemented with 10% FBS. All the cell lines were grown at 37° C. under 5% CO2. Cell lines were not tested for mycoplasma. In addition, the panel of four lung cancer (NCI-H23; SK-Mes-1; Calu6 and A549) were purchased from ATCC. They were cultured according to the ATCC protocol of each cell line. […]
(§2) Cell viability assay. […] Fluorescence intensity (excitation/emission: 540/590) was measured with a Victor 3 plate reader (PerkinElmer), and the normalized viability was calculated as VL=(IL−I0)/(IV−I0), where VL is the normalized viability, I0 is the raw fluorescence intensities from the wells containing media, IV is the cells treated with a vehicle (negative control), and IL is the cells with the lethal compound (L), respectively. The viability was typically measured in at least biological duplicate. […]
(§3) In addition, the compound TKD1079 was also analyzed for cytotoxicity in four different lung cancer cell lines according to the procedure described above. […]

HT-1080 cells [2] = experiment: Cell viability assay in HT-1080 cells, cotreatment with cell-death inhibitors; assay type: cell-based, human; conditions: HT-1080, 48 h; for EC50: Homo sapiens, read-out: EC50 (μM) of TKD1079 + inhbitor
[3] = tested on: four lung cancer cell lines (NCI-H23, Calu6, A549, SK-Mes-1); experiment: Cell viability of four lung cancer cell lines cotreated with ferrostatin-1; assay type: cell-based; conditions: ferrostatin-1 500 nM, 48 h
Experimental: as §1, §2

HT-1080 cells [4] = experiment: Cell viability assay (Alamar Blue), cytotoxicity in HT-1080 cells; assay type: cell-based, human; conditions: Homo sapiens
Experimental: (§4) Cell lines and media. In the following example, HT-1080 (Human fibrosarcoma harboring NrasQ61K) cells (obtained from ATCC) were grown in DMEM high-glucose media with 1% non-essential amino acids (Life Technologies) and 10% FBS. 143B cells were grown in DMEM high-glucose media with 1% glutamine and 10% FBS. Calu-1 cells were grown in McCoy's 5A media (Life Technologies) supplemented with 10% FBS. All the cell lines were grown at 37° C. under 5% CO2. Cell lines were not tested for mycoplasma. In addition, the panel of four lung cancer (NCI-H23; SK-Mes-1; Calu6 and A549) were purchased from ATCC. They were cultured according to the ATCC protocol of each cell line. The non-malignant breast epithelial cells (MCF10A) were maintained in DMEM/F12 medium supplemented with 5% horse serum, epidermal growth factor (20 ng/ml), insulin (10 μg/ml), hydrocortisone ([…]), cholera toxin (100 ng/ml), and penicillin/streptomycin.
(§5) Cell viability assay. 9,000 cells per 100 μl were seeded in each well in 96-well plates. Lethal compounds were dissolved in DMSO. In the mother plates, DMSO stock of each compound was further diluted with media to create 20 μM or 10 μm as highest concentrations, respectively and a twofold, 9-point dilution series was prepared. Cells were seeded for 24 h and media were replaced by the mother plate drug-dilution media. When ferroptosis inhibitors (for example, 500 nM Ferrostatin-1, 100 μM α-tocopherol, 152 μM deferoxamine) were used in cotreatments with lethal inducers, they were supplemented to cell culture when the lethal compounds were added, and the cells were then incubated for 48 h. When other cell-death-modulating compounds (100 nM sodium selenite) were used in cotreatments, they were supplemented to cell culture for 24 h before lethal compounds were added to cell culture, after which cells were further incubated for 48 h at 37° C. under 5% CO2. On the day of the viability measurement, we added 25 μl per well of 50% Alamar Blue diluted in media (Life Technologies) and further incubated the cells at 37° C. for 6 h. Fluorescence intensity (excitation/emission: 540/590) was measured with a Victor 3 plate reader (PerkinElmer), and the normalized viability was calculated as VL=(IL−I0)/(IV−I0), where VL is the normalized viability, I0 is the raw fluorescence intensities from the wells containing media, IV is the cells treated with a vehicle (negative control), and IL is the cells with the lethal compound (L), respectively. The viability was typically measured in at least biological duplicate. A representative dose-response curve, the mean and standard error of normalized viability from one replicate were plotted.
Statistical analysis and data visualization. Dose-response curve plotting and EC50 computation were performed with Prism 6.0c (GraphPad Software).
Various compounds were selected for analysis of their cytotoxicity in HT-1080 cells according to the procedure described above.

NCI-H23 cells = experiment: Cell viability assay, cytotoxicity in NCI-H23 cells; assay type: cell-based; conditions: 48 hours
Experimental: as §4
Cell viability assay. 9,000 cells per 100 μl were seeded in each well in 96-well plates. Lethal compounds were dissolved in DMSO. In the mother plates, DMSO stock of each compound was further diluted with media to create 20 μM or 10 μm as highest concentrations, respectively and a twofold, 9-point dilution series was prepared. […] Fluorescence intensity (excitation/emission: 540/590) was measured with a Victor 3 plate reader (PerkinElmer), and the normalized viability was calculated as VL=(IL−I0)/(IV−I0), where VL is the normalized viability, I0 is the raw fluorescence intensities from the wells containing media, IV is the cells treated with a vehicle (negative control), and IL is the cells with the lethal compound (L), respectively. The viability was typically measured in at least biological duplicate. […]
In addition, the compound TKD1079 was also analyzed for cytotoxicity in four different lung cancer cell lines according to the procedure described above. […] Cytotoxicity was also determined against MCF10A non-malignant breast epithelial cell, NCI-H1299 human non-small cell lung carcinoma cell line, and Beas-2B epithelial cells isolated from normal human bronchial epithelium.

Beas-2B epithelial cells = experiment: Cell viability assay, cytotoxicity in Beas-2B cells; assay type: cell-based; conditions: 48 hours
Experimental: as §5, with “When other cell-death-modulating compounds (100 nM sodium selenite) were used in cotreatments, they were supplemented to cell culture for 24 h before lethal compounds were added to cell culture, after which cells were further incubated for 48 h at 37° C. under 5% CO2. On the day of the viability measurement, we added 25 μl per well of 50% Alamar Blue diluted in media (Life Technologies) and further incubated the cells at 37° C. for 6 h.” left out, “A representative dose-response curve, the mean and standard error of normalized viability from one replicate were plotted.” left out
as §3

HT-1080 cells [5] = experiment: Analysis of ROS generation: lipid ROS by C11-BODIPY flow cytometry; assay type: cell-based, human; conditions: C11-BODIPY (2 μM), 4 hours
Experimental: Analysis of ROS Generation. 200,000 HT-1080 cells were seeded in six-well plates at 37° C. for 17 h. Cells were treated with TKD1079 compound, trypsinized, pelleted, and washed once with PBS. For lipophilic or aqueous ROS detection, cells were re-suspended in Hanks' Balanced Salt Solution (HBSS; Life Technologies) containing test compounds as well as C11-BODIPY(581/591) (2 μM) (Life Technologies), and incubated for 10 min at 37° C. Cells were then pelleted, re-suspended in 250 μL HBSS in a BD Falcon tube, and analyzed using a BD Accuri C6 flow cytometer (BD Biosciences). Both dyes were measured in the FL1 channel.

O=S(=O)(NC1CC2CCC1C2)c1ccc2c(c1)C(=NO)c1cc(S(=O)(=O)NC3CC4CCC3C4)ccc1-2 (stereo not shown) [TKD1079, N^2,N^7-di(bicyclo[2.2.1]heptan-2-yl)-9-(hydroxyimino)-9H-fluorene-2,7-disulfonamide]
cytotoxicity in breast MCF10A cells [1]: without harming | Slectivity in fold [EC50 (TKD1079 + inhibitor)/ EC50 inhbitor] (HT-1080 cells [2]; DFOM (152 μM)): 34.2 fold | Slectivity in fold [EC50 (TDK1079 + inhibitor)/ EC50 inhbitor] (HT-1080 cells [2]; Ebselen (5 μM)): 5.8 fold | Slectivity in fold [EC50 (TKD1079 + inhibitor)/ EC50 inhbitor] (HT-1080 cells [2]; Fer 1 (500 nM)): 68.8 fold | Slectivity in fold [EC50 (TDK1079 + inhibitor)/ EC50 inhbitor] (HT-1080 cells [2]; Selenite (100 nM)): 9.5 fold | Slectivity in fold [EC50 (TDK1079 + inhibitor)/ EC50 inhbitor] (HT-1080 cells [2]; TOFA (10 μM)): 148.7 fold | Slectivity in fold [EC50 (TDK1079 + inhibitor)/ EC50 inhbitor] (HT-1080 cells [2]; Trolox (100 μM)): 11.6 fold | Slectivity in fold [EC50 (TKD1079 + inhibitor)/ EC50 inhbitor] (HT-1080 cells [2]; ZVAD 45 μM): 0.6 fold | blocking of the compound's lethality by the apoptosis inhibitor pathway (ZVAD) (HT-1080 cells [2]; ZVAD 45 μM): did not block | Slectivity in fold [EC50 (TKD1079 + inhibitor)/ EC50 inhbitor] (HT-1080 cells [2]; aToc (100 μM)): 13.5 fold | EC50 (HT-1080 cells [2]; cotreated with DFOM (152 μM)): 2.73 µM | EC50 (HT-1080 cells [2]; cotreated with Ebselen (5 μM)): 0.459 µM | EC50 (HT-1080 cells [2]; cotreated with Fer 1 (500 nM)): 5.48 µM | EC50 (HT-1080 cells [2]; cotreated with Selenite (100 nM)): 0.758 µM | EC50 (HT-1080 cells [2]; cotreated with TOFA (10 μM)): 11.8 µM | EC50 (HT-1080 cells [2]; cotreated with Trolox (100 μM)): 0.924 µM | EC50 (HT-1080 cells [2]; cotreated with ZVAD (45 μM)): 0.051 µM | EC50 (HT-1080 cells [2]; cotreated with aToc (100 μM)): 1.08 µM | cytotoxicity in the presence of Fer-1 [3]: blocked | EC50 (HT-1080 cells [4]; HT-1080, 48 h, HT-1080 cells, 48 hours, no inhibitor, read-out: EC50 (μM) of TKD1079): 0.0797 µM | EC50 (HT-1080 cells [4]; HT-1080, HT-1080 cells, compound alone, read-out: EC 50): 0.079 µM | ferroptosis induction in NCI-H23 using ferroptosis inhibitors (NCI-H23 cells; NCI-H23, DFOM (152 μM) and Fer-1 (0.5 μM)): induces ferroptosis | cytotoxicity (cell viability) in NCI-H23 cells (NCI-H23 cells; NCI-H23 cells): highly potent | cytotoxicity in normal human lung Beas-2B cells (Beas-2B epithelial cells): without harming | lipid ROS generation during cell death (HT-1080 cells [5]): increased
